Test results published in patent US10221138B2, “Biaryl derivatives as GPR120 agonists” (LG CHEM, LTD., priority 2013, dated 2019).

The compounds below were run against T1, hGPR120 (Homo sapiens, UniProt Q5NUL3) (assay: Measurement of activity of GPR120 agonist (cell-based calcium fluorescence assay)). Details: not given.
T1 construct: expressed in transfected cells; host or cells: CHO-K1
T1 sequence (Q5NUL3 1-361): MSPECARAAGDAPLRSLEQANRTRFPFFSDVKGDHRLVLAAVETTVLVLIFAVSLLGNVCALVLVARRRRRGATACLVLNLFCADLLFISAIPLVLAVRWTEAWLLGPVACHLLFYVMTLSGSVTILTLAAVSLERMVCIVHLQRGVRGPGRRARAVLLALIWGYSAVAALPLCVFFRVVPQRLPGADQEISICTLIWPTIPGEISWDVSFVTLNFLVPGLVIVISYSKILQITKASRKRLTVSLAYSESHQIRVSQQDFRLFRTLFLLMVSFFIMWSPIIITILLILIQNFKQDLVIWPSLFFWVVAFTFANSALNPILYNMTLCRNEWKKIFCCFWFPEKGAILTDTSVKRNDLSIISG
Experimental: CHO-K1 cells expressing Ga16 and hGPR120 were dispensed into each well of a 96-well plate (3×10^4 cells/100 μl/well) and then incubated in 5% CO2, 37° C. incubator for 18 hours. Each well was treated with 100 μl of Calcium 5 dye (Molecular Devices) solution including 2% DMSO and then incubated in 5% CO2, 37° C. incubator for 1 hour. Serially diluted GPR120 agonists were prepared to a final concentration of 0.5% DMSO in a 96-well plate.
Fluorescence increased by the serially diluted GPR120 agonists is calculated as a relative percent (%) value based on the fluorescence represented by the treatment of 1% DMSO only. […] The calculation of measurement was carried out by using statistical software (Prizm).
Activity is denoted based on the following criteria: […]

Row | SMILES | EC50
1 | CC(C)Nc1ccccc1-c1cc(F)c(OCCCC(=O)O)c(F)c1 [Example 83, 4-[2,6-difluoro-4-[2-(isopropylamino)phenyl]phenoxy]butanoic Acid] | 200 to 2000 nM

Same assay, conditions: CHO-K1 cells expressing Ga16 and hGPR120, Calcium 5 dye fluorescence; activity class; read-out: EC50

Row | SMILES | EC50
2 | O=C(O)CCCCSc1c(F)cc(-c2cccnc2OC2CCC2)cc1F [Example 261, 5-[4-(2-cyclobutoxy-pyridin-3-yl)-2,6-difluoro-phenylsulfanyl]-pentanoic acid] | < 200 nM
3 | O=C(O)CCCSc1c(F)cc(-c2cccc(OC3CCCC3)n2)cc1F [Example 155, 4-[4-(6-cyclopentyloxy-pyridin-2-yl)-2,6-difluoro-phenylsulfanyl]-bytyric acid] | < 200 nM
4 | O=C(O)CCCSc1ccc(-c2cccc(SC3CCC3)n2)cc1 [Example 156, 4-[4-(6-cyclobutylsulfanyl-pyridin-2-yl)-phenylsulfanyl]-butyric acid] | < 200 nM
5 | CC(C)Nc1ccccc1-c1ccc(OCCCC(=O)O)cc1 [Example 87, 4-[4-[2-(isopropylamino)phenyl]phenoxy]butanoic acid] | 200 to 2000 nM
6 | CC(C)Sc1cccc(-c2cc(F)c(SCCCC(=O)O)c(F)c2)n1 [Example 140, 4-[2,6-difluoro-4-(6-isopropylsulfanyl-pyridin-2-yl)-phenylsulfanyl]-butyric acid] | < 200 nM
7 | O=C(O)CCCOc1ccc(-c2cccnc2SC2CCC2)cc1 [Example 48, 4-[4-(2-cyclobutylsulfanyl-pyridin-3-yl)-phenoxy]-butyric acid] | < 200 nM
8 | C[C@H](CCC(=O)O)Oc1c(F)cc(-c2cccc(Oc3ccccc3)c2)cc1F [Example 118, (4R)-4-[2,6-difluoro-4-(3-phenoxyphenyl)phenoxy]pentanoic acid] | < 200 nM
9 | O=C(O)CCCOc1c(F)cc(-c2cccc(CC3CCCC3)n2)cc1F [Example 100, 4-[4-[6-(cyclopentylmethyl)-2-pyridyl]-2,6-difluoro-phenoxy]butanoic acid] | < 200 nM
10 | O=C(O)CCCCOc1c(F)cc(-c2cccnc2OC2CCC2)cc1F [Example 214, 5-[4-(2-cyclobutoxy-pyridin-3-yl)-2,6-difluoro-phenoxy]-pentanoic acid] | < 200 nM
11 | O=C(O)CCCOc1c(F)cc(-c2ccccc2OC2CCCC2)cc1F [Example 55, 4-(2′-cyclopentyloxy-3,5-difluoro-biphenyl-4-yloxy)-butyric acid] | < 200 nM
12 | O=C(O)CCCOc1c(F)cc(-c2cccnc2C2CCCC2)cc1F [Example 107, 4-[4-(2-cyclopentyl-3-pyridyl)-2,6-difluoro-phenoxy]butanoic acid] | 200 to 2000 nM
13 | O=C(O)CCCOc1cc(F)c(-c2cccnc2SC2CCC2)c(F)c1 [Example 67, 4-[4-(2-cyclobutylsulfanyl-pyridin-3-yl)-3,5-difluoro-phenoxy]-butyric acid] | 200 to 2000 nM
14 | COc1ccc(-c2ccc(SCCCC(=O)O)c(F)c2)c(OC(C)C)c1 [Example 185, 4-(3-fluoro-2′-isopropoxy-4′-methoxy-biphenyl-4-ylsulfanyl)-butyric acid] | < 200 nM
15 | CC(C)Nc1cccc(-c2cc(F)c(OCCCC(=O)O)c(F)c2)n1 [Example 78, 4-[2,6-difluoro-4-[6-(isopropylamino)-2-pyridyl]phenoxy]butanoic acid] | 200 to 2000 nM
16 | O=C(O)CCCOc1c(F)cc(-c2cccc(C3CCCC3)n2)cc1F [Example 105, 4-[4-(6-cyclopentyl-2-pyridyl)-2,6-difluoro-phenoxy]butanoic acid] | < 200 nM
17 | CCCSc1ncccc1-c1cc(F)c(SCCCCC(=O)O)c(F)c1 [Example 257, 5-[2,6-difluoro-4-(2-propylsulfanyl-pyridin-3-yl)-phenylsulfanyl]-pentanoic acid] | < 200 nM
18 | CCCNc1cccc(-c2cc(F)c(OCCCC(=O)O)c(F)c2)c1 [Example 94, 4-[2,6-difluoro-4-[3-(propylamino)phenyl]phenoxy]butanoic acid] | 200 to 2000 nM
19 | COc1cc(-c2cccnc2SC2CCC2)ccc1OCCCC(=O)O [Example 7, 4-[4-(2-cyclobutylsulfanyl-pyridin-3-yl)-2-methoxy-phenoxy]-butyric acid] | 2000 to 20000 nM
20 | CCCOc1ccc(-c2ccc(SCCCC(=O)O)c(F)c2)c(OCCC)c1 [Example 192, 4-(3-fluoro-2′,4′-dipropoxy-biphenyl-4-ylsulfanyl)-butyric acid] | 2000 to 20000 nM
21 | CC(C)Oc1ncccc1-c1cc(F)c(OCCCC(=O)O)c(F)c1 [Example 43, 4-[2,6-difluoro-4-(2-isopropoxy-pyridin-3-yl)-phenoxy]-butyric acid] | 200 to 2000 nM

Row | SMILES | EC50
22 | O=C(O)CCCOc1ccc(-c2ccccc2Oc2ccccc2)cc1 [Example 37, 4-(2′-phenoxy-biphenyl-4-yloxy)-butyric acid] | < 200 nM
23 | O=C(O)CCCCSc1ccc(-c2cccnc2SC2CCC2)cc1 [Example 259, 5-[4-(2-cyclobutylsulfanyl-pyridin-3-yl)-phenylsulfanyl]-pentanoic acid] | < 200 nM
24 | CN(C)C1CCN(c2cccc(-c3cc(F)c(OCCCC(=O)O)c(F)c3)n2)C1 (centres unmarked) [Example 212, 4-[4-[6-[3-(dimethylamino)pyrrolidin-1-yl]-2-pyridyl]-2,6-difluoro-phenoxy]butanoic acid] | > 20000 nM
25 | Cc1cnn(-c2ncccc2-c2cc(F)c(OCCCC(=O)O)c(F)c2)c1 [Example 110, 4-[2,6-difluoro-4-[2-(4-methylpyrazol-1-yl)-3-pyridyl]phenoxy]butanoic acid] | > 20000 nM
26 | Cc1ccc(OC2CCCC2)c(-c2ccc(SCCCC(=O)O)c(F)c2)c1F [Example 193, 4-(6′-cyclopentyloxy-3,2′-difluoro-3′-methyl-biphenyl-4-ylsulfanyl)-butyric acid] | 200 to 2000 nM
27 | O=C(O)CCCSc1ccc(-c2cccnc2SC2CCC2)cc1 [Example 153, 4-[4-(2-cyclobutylsulfanyl-pyridin-3-yl)-phenylsulfanyl]-butyric acid] | < 200 nM
28 | C[C@@H](CCC(=O)O)Oc1c(F)cc(-c2cccnc2SC2CCC2)cc1F [Example 114, (4S)-4-[4-(2-cyclobutylsulfanyl-3-pyridyl)-2,6-difluoro-phenoxy]pentanoic acid] | < 200 nM
29 | O=C(O)CCCCOc1ccc(-c2cccnc2OC2CCCC2)cc1F [Example 267, 5-[4-(2-cyclopentyloxy-pyridin-3-yl)-2-fluoro-phenoxy]-pentanoic acid] | < 200 nM
30 | O=C(O)CCCSc1ccc(-c2cc(F)ccc2NC2CCCC2)cc1F [Example 175, 4-(2′-cyclopentylamino-3,5′-difluoro-biphenyl-4-ylsulfanyl)-butyric acid] | < 200 nM
31 | CCCOc1cccc(-c2cc(F)c(OCCCC(=O)O)c(F)c2)n1 [Example 23, 4-[2,6-difluoro-4-(6-propoxy-2-pyridyl)phenoxy]butyric acid] | < 200 nM
32 | CC(C)Oc1cccc(-c2cc(F)c(SCC3(CC(=O)O)CC3)c(F)c2)c1 [Example 121, [1-(3,5-difluoro-3′-isopropoxy-biphenyl-4-ylsulfanylmethyl)-cyclopropyl]-acetic acid] | < 200 nM
33 | O=C(O)CCCCCOc1c(F)cc(-c2cccnc2OCC2CC2)cc1F [Example 273, 6-[4-[2-(cyclopropylmethoxy)-3-pyridyl]-2,6-difluoro-phenoxy]hexanoic acid] | 200 to 2000 nM
34 | O=C(O)CCCCSc1c(F)cc(-c2cccnc2OC2CCCC2)cc1F [Example 252, 5-[4-(2-cyclopentyloxy-pyridin-3-yl)-2,6-difluoro-phenylsulfanyl]-pentanoic acid] | < 200 nM
35 | CN(C)CCOc1ncccc1-c1cc(F)c(OCCCC(=O)O)c(F)c1 [Example 203, 4-[4-[2-(2-dimethylaminoethyloxy)-3-pyridyl]-2,6-difluoro-phenoxy]butanoic acid] | > 20000 nM
36 | O=C(O)CCCSc1c(F)cc(-c2ccccc2NCC2CC2)cc1F [Example 162, 4-[2′-(cyclopropylmethyl-amino)-3,5-difluoro-biphenyl-4-ylsulfanyl]-butyric acid] | < 200 nM
37 | O=C(O)CCCSc1c(F)cc(-c2cccc(SC3CCCC3)n2)cc1F [Example 159, 4-[4-(6-cyclopentylsulfanyl-pyridin-2-yl)-2,6-difluoro-phenylsulfanyl]-butyric acid] | < 200 nM
38 | CC1(COc2ncccc2-c2cc(F)c(OCCCC(=O)O)c(F)c2)COC1 [Example 221, 4-[2,6-difluoro-4-[2-[(3-methyloxetan-3-yl)methoxy]-3-pyridyl]phenoxy]butanoic acid] | > 20000 nM
39 | O=C(O)CCCCOc1c(F)cc(-c2cccnc2OCC2CC2)cc1F [Example 239, 5-[4-[2-(cyclopropylmethoxy)-3-pyridyl]-2,6-difluoro-phenoxy]pentanoic acid] | < 200 nM
40 | O=C(O)CCCCCCOc1c(F)cc(-c2cccnc2OC2CCCC2)cc1F [Example 263, 7-[4-(2-cyclopentyloxy-pyridin-3-yl)-2,6-difluoro-phenoxy]-heptanoic acid] | 2000 to 20000 nM
41 | CC(C)Oc1ncccc1-c1cc(F)c(SC(C)CCC(=O)O)c(F)c1 (centres unmarked) [Example 242, 4-[2,6-difluoro-4-(2-isopropoxy-pyridin-3-yl)-phenylsulfanyl]-pentanoic acid] | < 200 nM
